Test results: PubChem BioAssay (NCI); in the data active means GI50 below about 0.43 µM; inactive means the rest
Where “and” joins values, the source holds several entries; their conditions need not be identical. Identical values can stand only once.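 The compound was tested at five concentrations on cells cultured in 96-well plates, with a 48-hour exposure period. GI50 marks 50% less growth. TGI is the concentration that stops growth completely.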

Key:
Assay in all cases: DTP human tumour cell line panel, 48 h
SK-MEL-2 melanoma = system: SK-MEL-2 melanoma
SF-268 CNS = system: SF-268 CNS
COLO 205 colon = system: COLO 205 colon
DMS 273 small cell lung = system: DMS 273 small cell lung
SF-539 CNS = system: SF-539 CNS
LXFL 529 NSCLC = system: LXFL 529 NSCLC
XF 498 CNS = system: XF 498 CNS
OVCAR-5 ovarian = system: OVCAR-5 ovarian
OVCAR-3 ovarian = system: OVCAR-3 ovarian
KM20L2 colon = system: KM20L2 colon
SNB-78 CNS = system: SNB-78 CNS
SNB-75 CNS = system: SNB-75 CNS
CAKI-1 renal = system: CAKI-1 renal
NCI-H522 lung = system: NCI-H522 lung
SK-MEL-5 melanoma = system: SK-MEL-5 melanoma
LOX IMVI melanoma = system: LOX IMVI melanoma
SR leukemia = system: SR leukemia
DLD-1 colon = system: DLD-1 colon
SW-620 colon = system: SW-620 colon
ACHN renal = system: ACHN renal
NCI-H226 lung = system: NCI-H226 lung
SNB-19 CNS = system: SNB-19 CNS
HL-60(TB) leukemia = system: HL-60(TB) leukemia
UACC-62 melanoma = system: UACC-62 melanoma
786-0 renal = system: 786-0 renal
TK-10 renal = system: TK-10 renal
CCRF-CEM leukemia = system: CCRF-CEM leukemia
NCI-H460 lung = system: NCI-H460 lung
K-562 leukemia = system: K-562 leukemia
HCT-15 colon = system: HCT-15 colon
NCI-H23 lung = system: NCI-H23 lung
OVCAR-4 ovarian = system: OVCAR-4 ovarian
HCT-116 colon = system: HCT-116 colon
U251 CNS = system: U251 CNS
SN12C renal = system: SN12C renal
SK-OV-3 ovarian = system: SK-OV-3 ovarian
HT29 colon = system: HT29 colon
M14 melanoma = system: M14 melanoma
SK-MEL-28 melanoma = system: SK-MEL-28 melanoma
HCC-2998 colon = system: HCC-2998 colon
RXF 393 renal = system: RXF 393 renal
MALME-3M melanoma = system: MALME-3M melanoma
UO-31 renal = system: UO-31 renal
IGROV1 ovarian = system: IGROV1 ovarian
A549 NSCLC = system: A549 NSCLC
KM12 colon = system: KM12 colon
HOP-18 NSCLC = system: HOP-18 NSCLC
UACC-257 melanoma = system: UACC-257 melanoma
EKVX NSCLC = system: EKVX NSCLC
HOP-92 NSCLC = system: HOP-92 NSCLC
OVCAR-8 ovarian = system: OVCAR-8 ovarian
HOP-62 NSCLC = system: HOP-62 NSCLC
SF-295 CNS = system: SF-295 CNS
A498 renal = system: A498 renal
M19-MEL melanoma = system: M19-MEL melanoma
RPMI-8226 leukemia = system: RPMI-8226 leukemia
MOLT-4 leukemia = system: MOLT-4 leukemia
T-47D breast = system: T-47D breast
BT-549 breast = system: BT-549 breast
NCI/ADR-RES ovarian = system: NCI/ADR-RES ovarian
MDA-N = system: MDA-N
DU-145 prostate = system: DU-145 prostate
HS 578T breast = system: HS 578T breast
PC-3 prostate = system: PC-3 prostate
MCF7 breast = system: MCF7 breast
MDA-MB-435 = system: MDA-MB-435
MDA-MB-231 breast = system: MDA-MB-231 breast

CC1=CC2C(=O)N(c3ccccc3)C(=O)C2CC1n1[nH]c(=O)n(Cc2ccccc2)c1=O (stereo unspecified)
> 100 µM: TGI (SK-MEL-2 melanoma) | TGI (SF-268 CNS) | TGI (COLO 205 colon) | TGI (DMS 273 small cell lung) | TGI (SF-539 CNS) | TGI (LXFL 529 NSCLC) | TGI (XF 498 CNS) | TGI (OVCAR-5 ovarian) | TGI (OVCAR-3 ovarian) | TGI (KM20L2 colon) | TGI (SNB-78 CNS) | TGI (SNB-75 CNS) | TGI (CAKI-1 renal) | TGI (NCI-H522 lung) | TGI (SK-MEL-5 melanoma) | TGI (LOX IMVI melanoma) | TGI (SR leukemia) | TGI (DLD-1 colon) | TGI (SW-620 colon) | TGI (ACHN renal) | TGI (NCI-H226 lung) | TGI (SNB-19 CNS) | TGI (HL-60(TB) leukemia) | TGI (UACC-62 melanoma) | TGI (786-0 renal) | TGI (TK-10 renal) | TGI (CCRF-CEM leukemia) | TGI (NCI-H460 lung) | TGI (K-562 leukemia) | TGI (HCT-15 colon) | TGI (NCI-H23 lung) | TGI (OVCAR-4 ovarian) | TGI (HCT-116 colon) | TGI (U251 CNS) | TGI (SN12C renal) | TGI (SK-OV-3 ovarian) | TGI (HT29 colon) | TGI (M14 melanoma) | TGI (SK-MEL-28 melanoma) | TGI (HCC-2998 colon) | TGI (RXF 393 renal) | TGI (MALME-3M melanoma) | TGI (UO-31 renal) | TGI (IGROV1 ovarian) | TGI (A549 NSCLC) | TGI (KM12 colon) | TGI (HOP-18 NSCLC) | TGI (UACC-257 melanoma) | TGI (EKVX NSCLC) | TGI (HOP-92 NSCLC) | TGI (OVCAR-8 ovarian) | TGI (HOP-62 NSCLC) | TGI (SF-295 CNS) | TGI (A498 renal)

COc1ccc(/C(Cl)=C(\CN(C)C)c2ccc(OC)c(OC)c2)cc1OC
> 28.6 µM: TGI (RXF 393 renal)
97.9 µM and > 100 µM: TGI (SNB-78 CNS)
> 46.4 µM: TGI (HCT-116 colon)
inactive: GI50 (TK-10 renal) > 27.9 µM
> 100 µM: TGI (SK-MEL-2 melanoma) | TGI (M19-MEL melanoma) | TGI (SF-268 CNS) | TGI (COLO 205 colon) | TGI (DMS 273 small cell lung) | TGI (SF-539 CNS) | TGI (LXFL 529 NSCLC) | TGI (XF 498 CNS) | TGI (OVCAR-5 ovarian) | TGI (OVCAR-3 ovarian) | TGI (KM20L2 colon) | TGI (SNB-75 CNS) | TGI (CAKI-1 renal) | TGI (NCI-H522 lung) | TGI (SK-MEL-5 melanoma) | TGI (LOX IMVI melanoma) | TGI (SR leukemia) | TGI (DLD-1 colon) | TGI (SW-620 colon) | TGI (ACHN renal) | TGI (NCI-H226 lung) | TGI (SNB-19 CNS) | TGI (HL-60(TB) leukemia) | TGI (UACC-62 melanoma) | TGI (RPMI-8226 leukemia) | TGI (786-0 renal) | TGI (TK-10 renal) | TGI (CCRF-CEM leukemia) | TGI (NCI-H460 lung) | TGI (K-562 leukemia) | TGI (HCT-15 colon) | TGI (NCI-H23 lung) | TGI (U251 CNS) | TGI (SN12C renal) | TGI (SK-OV-3 ovarian) | TGI (HT29 colon) | TGI (M14 melanoma) | TGI (SK-MEL-28 melanoma) | TGI (HCC-2998 colon) | TGI (MOLT-4 leukemia) | TGI (MALME-3M melanoma) | TGI (UO-31 renal) | TGI (IGROV1 ovarian) | TGI (A549 NSCLC) | TGI (KM12 colon) | TGI (HOP-18 NSCLC) | TGI (UACC-257 melanoma) | TGI (EKVX NSCLC) | TGI (OVCAR-8 ovarian) | TGI (HOP-62 NSCLC) | TGI (SF-295 CNS) | TGI (A498 renal)

O=C1C(c2ccc([N+](=O)[O-])cc2)=C(Cl)C(=O)c2c(O)cccc21
34.5 µM: TGI (MDA-N)
23.2 µM: TGI (LXFL 529 NSCLC)
46.6 µM: TGI (EKVX NSCLC)
29.1 µM: TGI (RXF 393 renal)
63.8 µM: TGI (SNB-78 CNS)
59.3 µM: TGI (A498 renal)
> 54.8 µM: TGI (SK-MEL-5 melanoma)
46.5 µM: TGI (M14 melanoma)
36 µM: TGI (M19-MEL melanoma)
32.4 µM: TGI (COLO 205 colon)
31.9 µM: TGI (MDA-MB-435)
28.9 µM: TGI (786-0 renal)
42.7 µM: TGI (DU-145 prostate)
19.1 µM: TGI (UO-31 renal)
96.9 µM: TGI (SNB-75 CNS)
66.2 µM: TGI (NCI/ADR-RES ovarian)
34.8 µM: TGI (MALME-3M melanoma)
> 56.6 µM: TGI (HCT-116 colon)
19.6 µM: TGI (HOP-18 NSCLC)
32.1 µM: TGI (BT-549 breast) | TGI (OVCAR-4 ovarian)
> 100 µM: TGI (DMS 273 small cell lung) | TGI (OVCAR-5 ovarian) | TGI (SR leukemia) | TGI (HL-60(TB) leukemia) | TGI (RPMI-8226 leukemia) | TGI (CCRF-CEM leukemia) | TGI (NCI-H460 lung) | TGI (K-562 leukemia) | TGI (SK-OV-3 ovarian) | TGI (HCC-2998 colon) | TGI (MOLT-4 leukemia) | TGI (A549 NSCLC) | TGI (HOP-62 NSCLC)
34.3 µM: TGI (SK-MEL-2 melanoma)
31.8 µM: TGI (MDA-MB-231 breast)
49.6 µM: TGI (SNB-19 CNS)
34.7 µM: TGI (TK-10 renal)
54 µM: TGI (HCT-15 colon)
35.6 µM: TGI (UACC-62 melanoma)
39.9 µM: TGI (SN12C renal)
37.7 µM: TGI (MCF7 breast)
> 62.6 µM: TGI (KM12 colon)
33.9 µM: TGI (SK-MEL-28 melanoma)
57.3 µM: TGI (PC-3 prostate)
> 86.4 µM: TGI (OVCAR-8 ovarian)
15.5 µM: TGI (SW-620 colon)
22.4 µM: TGI (XF 498 CNS)
52.6 µM: TGI (T-47D breast)
39.6 µM: TGI (SF-539 CNS)
50.2 µM: TGI (CAKI-1 renal)
49.8 µM: TGI (SF-268 CNS)
98.9 µM: TGI (SF-295 CNS)
33 µM: TGI (ACHN renal) | TGI (HOP-92 NSCLC)
25.3 µM: TGI (DLD-1 colon)
36.6 µM: TGI (NCI-H23 lung)
65.9 µM: TGI (HS 578T breast)
32.9 µM: TGI (UACC-257 melanoma)
42.4 µM: TGI (IGROV1 ovarian)
> 59.3 µM: TGI (NCI-H226 lung)
21.6 µM: TGI (NCI-H522 lung)
32.6 µM: TGI (OVCAR-3 ovarian) | TGI (LOX IMVI melanoma) | TGI (U251 CNS)
43.5 µM: TGI (HT29 colon)
